Assay results reported in PubChem BioAssay AID1963844 (Molecular Pharmacology Branch, DTP, NCI, 2024).

System: 422866-222-R5-J1-PDC complex spheroid viability
Assay: Anticancer human tumor 422866-222-R5-J1-PDC patient-derived pancreatic adenocarcinoma cell line growth inhibition [POLQ]
Conditions: for IC50: curve of first compound; for viability, T/C: stronger effect = lower value
Description: Multicellular complex tumor spheroid response to Polymerase (POL) inhibitors (novobiocin, ART-558, RP6685) in combination with a variety of drugs and investigational agents in selected tumor cell lines
The POL inhibitors (novobiocin, ART-558, and RP6685) were evaluated both individually and in combination with standard of care and investigational anticancer small molecules within a complex spheroid model of solid tumors. . Complex spheroids include a stromal component modeled by human endothelial cells (HUVEC) and fibroblasts modeled by human mesenchymal stem cells (MSCs). The concentration ranges selected for each drug and investigational agent were based upon clinically achievable concentrations if the clinical Cmax of the agent was known.
Compounds. The drugs and investigational agents: novobiocin (NSC847541), ART-558 (NSC835418), RP-6685 (NSC848927), peposertib (NSC802822), ceralasertib (NSC780249), elimusertib (NSC800525), camonsertib (NSC841442), AZD-1390 (NSC803789), olaparib (NSC753686), talazoparib (NSC767125), rucaparib (NSC756644), sotorasib (NSC818433), MRTX-1133 (NSC836407), SN-38 (NSC673596), topotecan (NSC609699), epotoside (NSC141540), doxorubicin (NSC123127), gemcitabine (NSC613327), 5-fluorouracil (NSC19893), paclitaxel (NSC125973), vemurafenib (NSC761431), MSA-2 (NSC828583), SN-011 (NSC837082), adavosertib (NSC754352), prexasertib (NSC758257), carboplatin (NSC241240) and oxaliplatin (NSC266046), were obtained from the National Cancer Institute (NCI) Developmental Therapeutics Program Chemical Repository (21). The FDA-approved anticancer drug set is available from the Developmental Therapeutics Program at https://dtp.cancer.gov/organization/dscb/obtaining/. […] The stock solutions were prepared in dimethyl sulfoxide (DMSO, Sigma-Aldrich, St. Louis, MO, cat. D2650), except for the platinum compounds which were prepared in saline (Quality Biological, Gaithersburg, MD, cat. 114-055-101), at 800-fold the tested concentration and stored at -70 degrees C prior to their use. All drugs and investigational agents were tested over a range starting from a high concentration at or near the clinical Cmax and decreasing in half-log increments. If the clinical Cmax for an agent had not been determined, the highest concentration tested was 10 microM, except for SN-38, which was tested at a high concentration of 1 microM.
Cell Culture. All cells were maintained in an incubator at 37 degrees C and 5% CO2 with 95% humidity. The PDC lines were cultured according to standard operating procedures established by the NCI PDMR (https://pdmr.cancer.gov). Table 3 of the manuscript, lists the cell lines along with the number of the three cell types plated to form the mct-spheroids and media for tumor cell growth. After thawing, all PDC lines, except 997537-175-T-J1-PDC and 415267-285-R-J2-PDC, were cultured in Matrigel-coated flasks prepared with a working solution of 1X Ham's F-12 nutrient mix, without supplementation (Thermo Fisher Scientific, cat. 11765054), 100 U/mL penicillin-streptomycin (Thermo Fisher Scientific, cat. 15140122), and 2.5% Matrigel (Corning Inc., Corning, NY, cat. 354248) for the first three passages. The two PDC lines 997537-175-T-J1-PDC and 415267-285-R-J2-PDC were cultured on uncoated flasks. The 857933-349-R-J2-PDC line was cultured in 6C/Colon 1B media containing advanced DMEM/F-12 (Thermo Fisher Scientific, cat. 12634028), 10 mM HEPES (Thermo Fisher Scientific, cat. 15630080), 1X GlutaMAX supplement (Thermo Fisher Scientific, cat. 35050061), 0.1 mg/mL primocin (InvivoGen, San Diego, CA, cat. ant-pm-2), 10% defined fetal bovine serum, heat inactivated (HyClone Laboratories Inc., Logan, UT, cat. SH30070.03HI), 50% L-WRN conditioned media (ATCC, cat. CRL-3276), 1.25 mM N-Acetyl-L-cysteine (Sigma-Aldrich, cat. A9165), 10 mM nicotinamide (Sigma-Aldrich, cat. N0636), 1X B-27 supplement (Thermo Fisher Scientific, cat. 17504044), 1X N-2 supplement (Thermo Fisher Scientific, cat. […]

[1] = second compound 0.0316 µM, first compound 0.0316 µM
[2] = second compound 0.0316 µM, first compound 0.1 µM
[3] = second compound 0.1 µM, first compound 0.0316 µM
[4] = second compound 0.1 µM, first compound 0.1 µM
[5] = second compound 0.316 µM, first compound 0.0316 µM
[6] = second compound 0.316 µM, first compound 0.1 µM
[7] = second compound 1 µM, first compound 0.0316 µM
[8] = second compound 1 µM, first compound 0.1 µM
[9] = second compound 3.16 µM, first compound 0.0316 µM
[10] = second compound 3.16 µM, first compound 0.1 µM
[11] = second compound 10 µM, first compound 0.0316 µM
[12] = second compound 10 µM, first compound 0.1 µM
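Further: spheroids exposed to compounds for one week before readout.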
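Wherever viability, T/C is given: percent of DMSO vehicle wells luminescence so 100% = untreated viability.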

## CC(C)n1c(=O)n(C)c2cnc3cc(F)c(-c4ccc(OCCCN5CCCCC5)nc4)cc3c21 + Cc1cccc(N(C)C(=O)C2C(O)CCN2c2nc(C)cc(C(F)(F)F)c2C#N)c1
Second compound 0.0316 µM
  IC50: > 10000 nM
Second compound 0.1 µM
  IC50: > 10000 nM
Second compound 0.316 µM
  IC50: > 10000 nM
Second compound 1 µM
  IC50: > 10000 nM
Second compound 3.16 µM
  IC50: > 10000 nM
Second compound 10 µM
  IC50: > 10000 nM
[1]
  viability, T/C: 105%
[2]
  viability, T/C: 101%
Second compound 0.0316 µM, first compound 0.316 µM
  viability, T/C: 105%
Second compound 0.0316 µM, first compound 1 µM
  viability, T/C: 124%
Second compound 0.0316 µM, first compound 3.16 µM
  viability, T/C: 106%
Second compound 0.0316 µM, first compound 10 µM
  viability, T/C: 64.9%
[3]
  viability, T/C: 91.6%
[4]
  viability, T/C: 108%
Second compound 0.1 µM, first compound 0.316 µM
  viability, T/C: 106%
Second compound 0.1 µM, first compound 1 µM
  viability, T/C: 115%
Second compound 0.1 µM, first compound 3.16 µM
  viability, T/C: 96.3%
Second compound 0.1 µM, first compound 10 µM
  viability, T/C: 60.4%
[5]
  viability, T/C: 117%
[6]
  viability, T/C: 101%
Second compound 0.316 µM, first compound 0.316 µM
  viability, T/C: 104%
Second compound 0.316 µM, first compound 1 µM
  viability, T/C: 114%
Second compound 0.316 µM, first compound 3.16 µM
  viability, T/C: 79.5%
Second compound 0.316 µM, first compound 10 µM
  viability, T/C: 67%
[7]
  viability, T/C: 100%
[8]
  viability, T/C: 112%
Second compound 1 µM, first compound 0.316 µM
  viability, T/C: 96.2%
Second compound 1 µM, first compound 1 µM
  viability, T/C: 111%
Second compound 1 µM, first compound 3.16 µM
  viability, T/C: 98%
Second compound 1 µM, first compound 10 µM
  viability, T/C: 59.5%
[9]
  viability, T/C: 115%
[10]
  viability, T/C: 115%
Second compound 3.16 µM, first compound 0.316 µM
  viability, T/C: 96.9%
Second compound 3.16 µM, first compound 1 µM
  viability, T/C: 118%
Second compound 3.16 µM, first compound 3.16 µM
  viability, T/C: 79.9%
Second compound 3.16 µM, first compound 10 µM
  viability, T/C: 66.9%
[11]
  viability, T/C: 115%
[12]
  viability, T/C: 90.5%
Second compound 10 µM, first compound 0.316 µM
  viability, T/C: 94.5%
Second compound 10 µM, first compound 1 µM
  viability, T/C: 90.7%
Second compound 10 µM, first compound 3.16 µM
  viability, T/C: 80.5%
Second compound 10 µM, first compound 10 µM
  viability, T/C: 60.3%

## CC[C@@]1(O)C(=O)OCc2c1cc1n(c2=O)Cc2cc3c(CN(C)C)c(O)ccc3nc2-1 + Nc1ccc(C#CCN(C(=O)Cc2ncc(C(F)(F)F)cc2C(F)(F)F)c2ccc(F)cc2)nn1
Second compound 0.0316 µM
  IC50: 26.3 nM
Second compound 0.1 µM
  IC50: 18.4 nM
Second compound 0.316 µM
  IC50: 19.5 nM
Second compound 1 µM
  IC50: 10.7 nM
Second compound 3.16 µM
  IC50: 19.7 nM
Second compound 10 µM
  IC50: 26.6 nM
Second compound 0.0316 µM, first compound 0.000316 µM
  viability, T/C: 102%
Second compound 0.0316 µM, first compound 0.001 µM
  viability, T/C: 109%
Second compound 0.0316 µM, first compound 0.00316 µM
  viability, T/C: 93.3%
Second compound 0.0316 µM, first compound 0.01 µM
  viability, T/C: 76%
[1]
  viability, T/C: 44%
[2]
  viability, T/C: 34.6%
Second compound 0.1 µM, first compound 0.000316 µM
  viability, T/C: 99.1%
Second compound 0.1 µM, first compound 0.001 µM
  viability, T/C: 87.2%
Second compound 0.1 µM, first compound 0.00316 µM
  viability, T/C: 89.6%
Second compound 0.1 µM, first compound 0.01 µM
  viability, T/C: 63.9%
[3]
  viability, T/C: 37.4%
[4]
  viability, T/C: 33.6%
Second compound 0.316 µM, first compound 0.000316 µM
  viability, T/C: 85.6%
Second compound 0.316 µM, first compound 0.001 µM
  viability, T/C: 105%
Second compound 0.316 µM, first compound 0.00316 µM
  viability, T/C: 87%
Second compound 0.316 µM, first compound 0.01 µM
  viability, T/C: 63.8%
[5]
  viability, T/C: 40.8%
[6]
  viability, T/C: 34.8%
Second compound 1 µM, first compound 0.000316 µM
  viability, T/C: 105%
Second compound 1 µM, first compound 0.001 µM
  viability, T/C: 108%
Second compound 1 µM, first compound 0.00316 µM
  viability, T/C: 80.5%
Second compound 1 µM, first compound 0.01 µM
  viability, T/C: 53.6%
[7]
  viability, T/C: 33.3%
[8]
  viability, T/C: 35.7%
Second compound 3.16 µM, first compound 0.000316 µM
  viability, T/C: 89.2%
Second compound 3.16 µM, first compound 0.001 µM
  viability, T/C: 100%
Second compound 3.16 µM, first compound 0.00316 µM
  viability, T/C: 92.9%
Second compound 3.16 µM, first compound 0.01 µM
  viability, T/C: 68.1%
[9]
  viability, T/C: 36.9%
[10]
  viability, T/C: 37%
Second compound 10 µM, first compound 0.000316 µM
  viability, T/C: 114%
Second compound 10 µM, first compound 0.001 µM
  viability, T/C: 99.4%
Second compound 10 µM, first compound 0.00316 µM
  viability, T/C: 100%
Second compound 10 µM, first compound 0.01 µM
  viability, T/C: 75.8%
[11]
  viability, T/C: 44.5%
[12]
  viability, T/C: 31.5%
